According to patent US12692254B2, “Benzimidazole inhibitors of PAD enzymes” (BRISTOL-MYERS SQUIBB COMPANY, priority 2018, dated 2026):

Target: human PAD4 (hPAD4) (Homo sapiens, UniProt Q9UM07)
Assay: RFMS human PAD4 functional assay (rapid-fire mass spectrum)
Assay type: biochemical
Settings: 5 nM hPAD4 enzyme, 250 μM BAEE, 50 μM Calcium; 30 min preincubation, 90 min reaction at 37° C.
Procedure, shortened: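 PAD4 (10 nM) preincubated 30 min with compound (top final 50 μM), then BAEE substrate added in pH 7.5 HEPES buffer with DTT, 50 μM calcium, TPEN; 90 min at 37° C. After TCA quench, citrulline derivatized with phenyl glyoxal (4 mM final, 30 min, 37° C) and quantified by RapidFire MS against internal standard.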

Sequence of human PAD4 (hPAD4) (Q9UM07 whole entry): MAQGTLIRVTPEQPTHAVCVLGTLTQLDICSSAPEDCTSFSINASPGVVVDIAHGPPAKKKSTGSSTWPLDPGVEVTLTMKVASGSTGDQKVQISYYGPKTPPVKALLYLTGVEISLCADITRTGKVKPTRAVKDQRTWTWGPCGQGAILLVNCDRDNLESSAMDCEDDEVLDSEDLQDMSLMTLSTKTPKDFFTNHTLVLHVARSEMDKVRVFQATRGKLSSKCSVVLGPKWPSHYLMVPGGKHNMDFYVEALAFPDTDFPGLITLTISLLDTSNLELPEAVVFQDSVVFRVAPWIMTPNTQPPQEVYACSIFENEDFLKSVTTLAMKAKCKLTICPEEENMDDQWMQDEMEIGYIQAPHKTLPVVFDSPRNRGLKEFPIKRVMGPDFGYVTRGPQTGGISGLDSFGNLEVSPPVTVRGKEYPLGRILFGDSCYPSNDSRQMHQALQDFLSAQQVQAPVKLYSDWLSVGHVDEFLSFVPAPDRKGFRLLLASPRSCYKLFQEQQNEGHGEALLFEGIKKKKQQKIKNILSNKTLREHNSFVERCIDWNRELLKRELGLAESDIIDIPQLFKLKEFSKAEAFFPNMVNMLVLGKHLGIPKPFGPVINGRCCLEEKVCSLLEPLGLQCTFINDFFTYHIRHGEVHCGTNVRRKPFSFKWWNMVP

| IC50 | SMILES |
| --- | --- |
| 16 nM | COc1cc(C(=O)N2C[C@H]3CC[C@@H]2[C@@H]3N)cc2nc(-c3cc4ccccc4n3CC3CC3)n(C[C@H]3CCN(c4cncc(C#N)n4)C3)c12 [Example 196, 6-[(3S)-3-({5-[(1R,4R,7R)-7-amino-2-azabicyclo[2.2.1]heptane-2-carbonyl]-2-[1-(cyclopropylmethyl)-1H-indol-2-yl]-7-methoxy-1H-1,3-benzodiazol-1-yl}methyl)pyrrolidin-1-yl]pyrazine-2-carbonitrile] |
| 19 nM | COc1cc(C(=O)N2C[C@H]3CC[C@@H]2[C@@H]3N)cc2nc(-c3cc4ccccc4n3CC3CC3)n(CC3CN(C(=O)c4cccn4C)C3)c12 [Example 148, (1R,4R,7R)-2-{2-[1-(cyclopropylmethyl)-1H-indol-2-yl]-7-methoxy-1-{[1-(1-methyl-1H-pyrrole-2-carbonyl)azetidin-3-yl]methyl}-1H-1,3-benzodiazole-5-carbonyl}-2-azabicyclo[2.2.1]heptan-7-amine] |
| 21 nM | COc1cc(C(=O)N2C[C@H]3CC[C@@H]2[C@@H]3N)cc2nc(-c3cc4ccc(Cl)cc4n3CC3CC3)n(CC3CN(c4ccnc(C)n4)C3)c12 [Example 9, (1R,4R,7R)-2-{2-[6-chloro-1-(cyclopropylmethyl)-1H-indol-2-yl]-7-methoxy-1-{[1-(2-methylpyrimidin-4-yl)azetidin-3-yl]methyl}-1H-1,3-benzodiazole-5-carbonyl}-2-azabicyclo[2.2.1]heptan-7-amine] |
| 51 nM | COc1cc(C(=O)N2C[C@H]3CC[C@@H]2[C@@H]3N)cc2nc(-c3cc4cccnc4n3CC3CC3)n(CC3CN(C(=O)c4ccncn4)C3)c12 [Example 111, (1R,4R,7R)-2-{2-[1-(cyclopropylmethyl)-1H-pyrrolo[2,3-b]pyridin-2-yl]-7-methoxy-1-{[1-(pyrimidine-4-carbonyl)azetidin-3-yl]methyl}-1H-1,3-benzodiazole-5-carbonyl}-2-azabicyclo[2.2.1]heptan-7-amine] |
| 102 nM | COc1cc(C(=O)N2C[C@H]3CC[C@@H]2[C@@H]3N)cc2nc(-c3cc4cccnc4n3CC3CC3)n(CC3CN(C(=O)c4ccnc(N)n4)C3)c12 [Example 125, (1R,4R,7R)-2-(1-{[1-(2-aminopyrimidine-4-carbonyl)azetidin-3-yl]methyl}-2-[1-(cyclopropylmethyl)-1H-pyrrolo[2,3-b]pyridin-2-yl]-7-methoxy-1H-1,3-benzodiazole-5-carbonyl)-2-azabicyclo[2.2.1]heptan-7-amine] |
| 87 nM | COc1cc(C(=O)N2CC3CCC2[C@@H]3N)cc2nc(-c3cc4cccnc4n3CC3CC3)n(CC3CCN(c4ccnc(C#N)n4)CC3)c12 (stereo partly drawn) [Example 218, 4-[4-({5-[(1R,4R.,7R)-7-amino-2-azabicyclo[2.2.1]heptane020 carbonyl]-2-[1-(cyclopropylmethyl)-1H-pyrrolo[2,3-b]pyridin-2-yl]-7-methoxy-1H-1,3-benzodiazol-1-yl}methyl)piperidin-1-yl]pyrimidin-2-carbonitrile] |
| 98 nM | COc1cc(C(=O)N2C[C@H]3CC[C@@H]2[C@@H]3N)cc2nc(-c3cc4cccnc4n3C)n(CC3CN(c4cncc(C#N)n4)C3)c12 [Example 40, 6-[3-({5-[(1R,4R,7R)-7-amino-2-azabicyclo[2.2.1]heptane-2-carbonyl]-7-methoxy-2-{1-methyl-1H-pyrrolo[2,3-b]pyridin-2-yl}-1H-1,3-benzodiazol-1-yl}methyl)azetidin-1-yl]pyrazine-2-carbonitrile] |
| 37 nM | COc1cc(C(=O)N2CC3CCC2[C@@H]3N)cc2nc(-c3cc4ccccc4n3CC3CC3)n(Cc3cnn(-c4cc(F)cnc4O)c3)c12 (stereo partly drawn) [Example 376, 3-[4-({5-[(7R)-7-amino-2-azabicyclo[2.2.1]heptane-2-carbonyl]-2-[1-(cyclopropylmethyl)-1H-indol-2-yl]-7-methoxy-1H-1,3-benzodiazol-1-yl}methyl)-1H-pyrazol-1-yl]-5-fluoropyridin-2-ol] |
| 86 nM | COc1cc(C(=O)N2CC3CCC2[C@@H]3N)cc2nc(-c3cc4ccccc4n3C)n(CC3CN(C(=O)c4ccc(C#N)cc4)C3)c12 (stereo partly drawn) [Example 178, 4-[3-({5-[(7R)-7-amino-2-azabicyclo[2.2.1]heptane-2-carbonyl]-7-methoxy-2-(1-methyl-1H-indol-2-yl)-1H-1,3-benzodiazol-1-yl}methyl)azetidine-1-carbonyl]benzonitrile] |
| 116 nM | COc1cc(C(=O)N2C[C@H]3CC[C@@H]2[C@@H]3N)cc2nc(-c3cc4cccnc4n3CC3CC3)n(C[C@@H]3CCN(c4cncnc4C#N)C3)c12 [Example 214, 5-[(3R)-3-({5-[(1R,4R,7R)-7-amino-2-azabicyclo[2.2.1]heptane-2-carbonyl]-2-[1-(cyclopropylmethyl)-1H-pyrrolo[2,3-b]pyridin-2-yl]-7-methoxy-1H-1,3-benzodiazol-1-yl}methyl)pyrrolidin-1-yl]pyrimidine-4-carbonitrile] |
| 169 nM | COc1cc(C(=O)N2C[C@H]3CC[C@@H]2[C@@H]3N)cc2nc(-c3cc4cc(Cl)ccc4n3C)n(CC3CN(c4cncc(C#N)c4)C3)c12 [Example 58, 5-[3-({5-[(1R,4R,7R)-7-amino-2-azabicyclo[2.2.1]heptane-2-carbonyl]-2-(5-chloro-1-methyl-1H-indol-2-yl)-7-methoxy-1H-1,3-benzodiazol-1-yl}methyl)azetidin-1-yl]pyridine-3-carbonitrile] |
| 26 nM | COC(=O)c1cccc(-n2cc(Cn3c(-c4cc5cccnc5n4CC4CC4)nc4cc(C(=O)N5C[C@H](N)C[C@@H](F)C5)cc(OC)c43)cn2)n1 [Example 364, methyl 6-[4-({5-[(3R,5R)-3-amino-5-fluoropipendine-1-carbonyl]-2-[1-(cyclopropylmethyl)-1H-pyrrolo[2,3-b]pyridin-2-yl]-7-methoxy-1H-1,3-benzodiazol-1-yl}methyl)-1H-pyrazol-1-yl]pyridine-2-carboxylate] |
| 101 nM | COc1cc(C(=O)N2C[C@H]3CC[C@@H]2[C@@H]3N)cc2nc(-c3cc4ccccc4n3C)n(CC3CN(C(=O)c4ccccc4)C3)c12 [Example 181, (1R,4R,7R)-2-{1-[(1-benzoylazetidin-3-yl)methyl]-7-methoxy-2-(1-methyl-1H-indol-2-yl)-1H-1,3-benzodiazole-5-carbonyl}-2-azabicyclo[2.2.1]heptan-7-amine] |
| 22 nM | COc1ccc(-n2cc(Cn3c(-c4cc5ccccc5n4CC4CC4)nc4cc(C(=O)N5CC6CCC5[C@@H]6N)cc(OC)c43)cn2)cn1 (stereo partly drawn) [Example 354, (7R)-2-{2-[1-(cyclopropylmethyl)-1H-indol-2-yl]-7-methoxy-1-{[1-(6-methoxypyridin-3-yl)-1H pyrazol-4-yl]methyl}-1H-1,3-benzodiazole-5-carbonyl}-2-azabicyclo[2.2.1]heptan-7-amine] |
| 83 nM | Cn1cc(Cn2c(-c3cc4cccnc4n3CC3CC3)nc3cc(C(=O)N4CC5CCC4[C@@H]5N)cc(Cl)c32)cn1 (stereo partly drawn) [Example 493, (7R)-2-{7-chloro-2-[1-(cyclopropylmethyl)-1H-pyrrolo[2,3-b]pyridin-2-yl]-1-[(1-methyl-1H-pyrazol-4-yl)methyl]-1H-1,3-benzodiazole-5-carbonyl}-2-azabicyclo[2.2.1]heptan-7-amine] |
| 76 nM | COc1cc(C(=O)N2CC3CCC2[C@@H]3N)cc2nc(-c3cc4cccnc4n3CC3CC3)n(CC3CN(C(=O)c4cccc(F)c4)C3)c12 (stereo partly drawn) [Example 464, (7R)-2-{2-[1-(cyclopropylmethyl)-1H-pyrrolo[2,3-b]pyridin-2-yl]-1-{[1-(3-fluorobenzoyl)azetidin-3-yl]methyl}-7-methoxy-1H-1,3-benzodiazole-5-carbonyl}-2-azabicyclo[2.2.1]heptan-7-amine] |
| 51 nM | N[C@@H]1[C@@H]2CC[C@H]1N(C(=O)c1ccc3c(c1)nc(-c1cc4ccccc4n1CC1CC1)n3CC1CN(C(=O)c3ccncc3)C1)C2 [Example 175, (1R,4R,7R)-2-{2-[1-(cyclopropylmethyl)-1H-indol-2-yl]-1-{[1-(pyridine-4-carbonyl)azetidin-3-yl]methyl}-1H-1,3-benzodiazole-5-carbonyl}-2-azabicyclo[2.2.1]heptan-7-amine] |
| 403 nM | COc1cc(C(=O)N2C[C@H]3CC[C@@H]2[C@@H]3N)cc2nc(-c3cc4cccnc4n3CC3CC3)n(C3CN(c4ccccc4)C3)c12 [Example 81, (1R,4R,7R)-2-{2-[1-(cyclopropylmethyl)-1H-pyrrolo[2,3-b]pyridin-2-yl]-7-methoxy-1-(1-phenylazetidin-3-yl)-1H-1,3-benzodiazole-5-carbonyl}-2-azabicyclo[2.2.1]heptan-7-amine] |
| 53 nM | COc1cc(C(=O)N2CC3CCC2[C@@H]3N)cc2nc(-c3cc4ccccc4n3CC3CC3)n(CC3CN(C(=O)c4cscn4)C3)c12 (stereo partly drawn) [Example 453, (7R)-2-{2-[1-(cyclopropylmethyl)-1H-indol-2-yl]-7-methoxy-1-{[1-(1,3-thiazole-4-carbonyl)azetidin-3-yl]methyl}-1H-1,3-benzodiazole-5-carbonyl}-2-azabicyclo[2.2.1]heptan-7-amine] |
| 1260 nM | COc1cc(C(=O)N2CC3CCC2[C@@H]3N)cc2nc(-c3cc4cccnc4n3CC3CC3)n(C3CN(S(=O)(=O)C(F)(F)F)C3)c12 (stereo partly drawn) [Example 340, (1R,,4R,7R)-2-{2-[1-(cyclopropylmethyl)-1H-pyrrolo[2,3-b]pyridin-2-yl]-7-methoxy-1-(1-trifluoromethanesulfonylazetidin-3-yl)-1H-1,3-benzodiazole-5-carbonyl}-2-azabicyclo[2.2.1]heptan-7-amine] |
| 14 nM | COc1cc(C(=O)N2CC3CCC2[C@@H]3N)cc2nc(-c3cc4ccccc4n3CC3CC3)n(CC3CN(C(=O)c4cc(C)nc(C)c4)C3)c12 (stereo partly drawn) [Example 418, (7R)-2-{2-[1-(cyclopropylmethyl)-1H-indol-2-yl]-1-{[1-(2,6-dimethylpyridine-4-carbonyl)azetidin-3-yl]methyl}-7-methoxy-1H-1,3-benzodiazole-5-carbonyl}-2-azabicyclo[2.2.1]heptan-7-amine] |
